Tests used:
[1] = system: endothelial tube formation in co-cultures of ECFCs and ADSCs treated with VEGF; assay: cells; type: cell-based, human
[2] = system: nuclear β-catenin in C2C12 cells; assay: cells; type: cell-based; conditions: assay number 5; concentration response
[3] = system: alkaline phosphatase (ALP) activity in C2C12 cells; type: cell-based; conditions: assay number 6; concentration response
[4] = system: HeLa cells; assay: cells; type: cell-based; conditions: for Hela CellCycMod PI 2N IC50/EC50: assay number 14; for Hela CellCycMod PI S Phase IC50/EC50: assay number 15; for Hela CellCycMod PI 4N IC50/EC50: assay number 16; for Hela CellCycMod PI MI IC50/EC50: assay number 17; for Hela CellCycMod PI Cell Number IC50/EC50: assay number 18
[5] = system: DLD-1; assay: cells; type: cell-based; conditions: assay number 23
[6] = system: SW480; assay: cells; type: cell-based; conditions: assay number 24
[7] = system: HCT116; assay: cells; type: cell-based; conditions: assay number 25; basal
[8] = system: HCT116 cells treated with a GSK3β inhibitor; assay: cells; type: cell-based; conditions: assay number 26; GSK3b inhibitor pretreated
[9] = system: Colo320; assay: cells; type: cell-based; conditions: assay number 27
[10] = system: HT-29; assay: cells; type: cell-based; conditions: assay number 28
[11] = system: RKO; assay: cells; type: cell-based; conditions: assay number 29
[12] = system: SNU-C1; assay: cells; type: cell-based; conditions: assay number 30
[13] = biological target: T1, hp70S6K1 (RPS6KB1) (Homo sapiens, UniProt P23443); assay: Cerep LANCE kinase assay hp70S6K1 (S1 assay 31); type: biochemical; conditions: assay number 31
T1 construct: purchased Cerep (LANCE kinase assay platform, contract assay)
T1 sequence (P23443 whole entry): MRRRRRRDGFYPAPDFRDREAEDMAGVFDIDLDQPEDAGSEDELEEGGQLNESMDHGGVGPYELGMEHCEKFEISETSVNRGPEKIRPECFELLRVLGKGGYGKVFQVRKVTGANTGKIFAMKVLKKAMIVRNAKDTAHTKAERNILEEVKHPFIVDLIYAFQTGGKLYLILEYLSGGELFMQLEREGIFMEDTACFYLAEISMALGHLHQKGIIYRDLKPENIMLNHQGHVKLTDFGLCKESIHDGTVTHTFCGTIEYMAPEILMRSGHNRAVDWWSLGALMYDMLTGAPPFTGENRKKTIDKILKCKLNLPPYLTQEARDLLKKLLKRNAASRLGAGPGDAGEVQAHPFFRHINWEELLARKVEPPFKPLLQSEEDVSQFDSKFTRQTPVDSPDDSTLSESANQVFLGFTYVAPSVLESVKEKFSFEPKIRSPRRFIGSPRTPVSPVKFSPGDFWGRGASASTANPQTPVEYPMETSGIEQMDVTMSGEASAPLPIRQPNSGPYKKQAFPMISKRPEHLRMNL

[14] = biological target: T2, hKDR (Homo sapiens, UniProt P35968); assay: Cerep LANCE kinase assay hKDR (S1 assay 32); type: biochemical; conditions: assay number 32
T2 construct: purchased Cerep (LANCE kinase assay platform, contract assay)
T2 sequence (P35968 20-1356): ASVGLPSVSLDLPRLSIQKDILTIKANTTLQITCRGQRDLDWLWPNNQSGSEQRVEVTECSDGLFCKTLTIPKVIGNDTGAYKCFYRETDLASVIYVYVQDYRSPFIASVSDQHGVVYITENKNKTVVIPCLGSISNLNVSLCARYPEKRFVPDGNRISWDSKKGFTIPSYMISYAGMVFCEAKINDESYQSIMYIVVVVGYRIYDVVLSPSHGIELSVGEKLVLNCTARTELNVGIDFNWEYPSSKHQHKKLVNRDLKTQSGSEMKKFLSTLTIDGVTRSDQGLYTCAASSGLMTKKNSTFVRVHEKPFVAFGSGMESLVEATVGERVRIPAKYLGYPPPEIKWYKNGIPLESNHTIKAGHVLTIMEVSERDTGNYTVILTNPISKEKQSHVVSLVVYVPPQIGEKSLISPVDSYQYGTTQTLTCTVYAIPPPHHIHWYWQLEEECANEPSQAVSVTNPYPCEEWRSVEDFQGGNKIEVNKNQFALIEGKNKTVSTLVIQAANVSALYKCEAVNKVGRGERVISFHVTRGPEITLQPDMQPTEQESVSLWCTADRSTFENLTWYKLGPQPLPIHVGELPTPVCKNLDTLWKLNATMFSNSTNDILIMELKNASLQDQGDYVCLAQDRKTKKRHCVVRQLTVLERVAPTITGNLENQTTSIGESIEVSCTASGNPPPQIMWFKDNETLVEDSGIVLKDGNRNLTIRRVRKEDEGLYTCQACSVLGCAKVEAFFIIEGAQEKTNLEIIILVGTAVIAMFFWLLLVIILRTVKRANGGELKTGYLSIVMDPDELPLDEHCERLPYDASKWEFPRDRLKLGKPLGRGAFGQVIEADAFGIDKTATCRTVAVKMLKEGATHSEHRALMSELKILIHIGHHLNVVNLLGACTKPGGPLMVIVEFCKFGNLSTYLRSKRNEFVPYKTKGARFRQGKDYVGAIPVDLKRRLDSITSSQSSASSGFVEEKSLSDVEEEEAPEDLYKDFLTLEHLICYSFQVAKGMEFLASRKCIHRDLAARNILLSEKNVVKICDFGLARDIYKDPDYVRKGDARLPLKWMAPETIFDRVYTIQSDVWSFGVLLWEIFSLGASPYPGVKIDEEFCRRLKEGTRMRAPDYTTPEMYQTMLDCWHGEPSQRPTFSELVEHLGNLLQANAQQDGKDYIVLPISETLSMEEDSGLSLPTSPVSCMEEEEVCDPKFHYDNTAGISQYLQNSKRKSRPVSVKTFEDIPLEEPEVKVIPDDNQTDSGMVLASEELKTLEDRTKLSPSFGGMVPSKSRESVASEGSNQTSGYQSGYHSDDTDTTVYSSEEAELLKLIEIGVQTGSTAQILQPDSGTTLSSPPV

[15] = biological target: T3, hJAK2 (Homo sapiens, UniProt O60674); assay: Cerep LANCE kinase assay hJAK2 (S1 assay 33); type: biochemical; conditions: assay number 33
T3 construct: purchased Cerep (LANCE kinase assay platform, contract assay)
T3 sequence (O60674 whole entry): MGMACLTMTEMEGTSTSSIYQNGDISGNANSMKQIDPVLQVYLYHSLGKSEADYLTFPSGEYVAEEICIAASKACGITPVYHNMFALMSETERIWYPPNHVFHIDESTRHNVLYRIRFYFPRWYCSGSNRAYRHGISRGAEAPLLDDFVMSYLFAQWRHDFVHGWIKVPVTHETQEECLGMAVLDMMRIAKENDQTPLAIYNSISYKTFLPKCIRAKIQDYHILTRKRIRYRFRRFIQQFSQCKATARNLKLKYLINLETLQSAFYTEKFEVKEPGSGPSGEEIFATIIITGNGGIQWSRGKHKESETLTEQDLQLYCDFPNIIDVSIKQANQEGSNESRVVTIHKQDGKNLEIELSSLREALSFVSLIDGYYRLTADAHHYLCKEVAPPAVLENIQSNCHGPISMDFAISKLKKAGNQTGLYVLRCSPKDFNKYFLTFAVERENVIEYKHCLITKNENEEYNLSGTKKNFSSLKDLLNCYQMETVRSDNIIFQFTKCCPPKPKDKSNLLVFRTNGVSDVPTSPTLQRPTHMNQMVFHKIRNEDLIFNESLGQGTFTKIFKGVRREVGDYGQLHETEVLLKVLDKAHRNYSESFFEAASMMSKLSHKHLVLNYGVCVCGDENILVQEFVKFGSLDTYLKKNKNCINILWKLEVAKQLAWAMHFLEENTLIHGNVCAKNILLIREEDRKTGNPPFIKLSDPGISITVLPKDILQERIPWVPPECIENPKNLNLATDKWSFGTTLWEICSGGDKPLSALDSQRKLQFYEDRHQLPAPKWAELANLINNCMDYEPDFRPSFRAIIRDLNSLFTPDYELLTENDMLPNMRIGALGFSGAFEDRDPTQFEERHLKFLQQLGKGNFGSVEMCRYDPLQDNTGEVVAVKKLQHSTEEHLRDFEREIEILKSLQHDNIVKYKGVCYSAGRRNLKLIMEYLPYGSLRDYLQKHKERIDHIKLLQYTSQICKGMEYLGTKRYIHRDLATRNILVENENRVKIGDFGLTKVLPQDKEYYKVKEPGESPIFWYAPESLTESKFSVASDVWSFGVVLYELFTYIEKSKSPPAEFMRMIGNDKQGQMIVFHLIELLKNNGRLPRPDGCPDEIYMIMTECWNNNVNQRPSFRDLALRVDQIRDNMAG

[16] = biological target: T4, hGSK3b (Homo sapiens, UniProt P49841); assay: Cerep LANCE kinase assay hGSK3b (S1 assay 34); type: biochemical; conditions: assay number 34
T4 construct: purchased Cerep (LANCE kinase assay platform, contract assay)
T4 sequence (P49841 whole entry): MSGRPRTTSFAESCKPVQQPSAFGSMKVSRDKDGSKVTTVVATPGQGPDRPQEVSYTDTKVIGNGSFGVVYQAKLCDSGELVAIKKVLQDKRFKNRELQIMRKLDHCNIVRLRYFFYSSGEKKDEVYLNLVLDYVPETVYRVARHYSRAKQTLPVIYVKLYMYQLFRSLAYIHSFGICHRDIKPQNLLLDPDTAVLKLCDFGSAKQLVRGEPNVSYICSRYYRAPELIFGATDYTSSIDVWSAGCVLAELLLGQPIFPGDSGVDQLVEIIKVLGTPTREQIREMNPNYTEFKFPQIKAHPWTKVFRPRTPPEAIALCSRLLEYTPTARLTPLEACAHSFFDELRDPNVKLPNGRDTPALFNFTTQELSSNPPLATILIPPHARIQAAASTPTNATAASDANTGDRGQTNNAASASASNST

[17] = biological target: T5, hFLT3 (Homo sapiens, UniProt P36888); assay: Cerep LANCE kinase assay hFLT3 (S1 assay 35); type: biochemical; conditions: assay number 35
T5 construct: purchased Cerep (LANCE kinase assay platform, contract assay)
T5 sequence (P36888 27-993): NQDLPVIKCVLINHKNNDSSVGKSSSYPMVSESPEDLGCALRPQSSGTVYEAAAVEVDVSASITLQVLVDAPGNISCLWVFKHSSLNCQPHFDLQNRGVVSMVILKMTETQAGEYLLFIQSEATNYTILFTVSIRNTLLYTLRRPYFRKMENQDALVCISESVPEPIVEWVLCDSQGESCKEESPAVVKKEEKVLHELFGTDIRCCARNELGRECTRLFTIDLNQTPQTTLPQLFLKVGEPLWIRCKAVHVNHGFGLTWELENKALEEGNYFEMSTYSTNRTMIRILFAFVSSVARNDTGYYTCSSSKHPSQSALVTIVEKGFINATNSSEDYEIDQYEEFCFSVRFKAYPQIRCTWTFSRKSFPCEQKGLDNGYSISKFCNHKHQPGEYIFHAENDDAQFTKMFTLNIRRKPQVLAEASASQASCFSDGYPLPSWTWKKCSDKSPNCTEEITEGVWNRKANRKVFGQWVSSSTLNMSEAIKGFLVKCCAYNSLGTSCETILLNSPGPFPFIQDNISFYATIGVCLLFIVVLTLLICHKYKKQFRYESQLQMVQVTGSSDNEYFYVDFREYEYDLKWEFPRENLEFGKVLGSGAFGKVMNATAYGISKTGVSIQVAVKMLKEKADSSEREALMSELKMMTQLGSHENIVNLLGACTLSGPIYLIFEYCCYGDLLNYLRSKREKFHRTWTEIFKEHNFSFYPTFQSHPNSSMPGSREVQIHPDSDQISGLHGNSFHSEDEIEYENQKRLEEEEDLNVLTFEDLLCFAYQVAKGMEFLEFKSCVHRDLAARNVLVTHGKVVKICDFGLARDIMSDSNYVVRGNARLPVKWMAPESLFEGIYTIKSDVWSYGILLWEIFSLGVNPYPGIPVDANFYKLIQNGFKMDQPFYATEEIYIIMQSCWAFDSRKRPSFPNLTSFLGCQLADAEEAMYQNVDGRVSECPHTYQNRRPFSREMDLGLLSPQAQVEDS

[18] = system: ECFC/ADSC co-culture cell nuclei number

O=C(CCl)c1ccc(Cl)cc1Cl [NCGC00091258-05]
VEGF_ADSC\ECFC Angio CD31 TubeArea IC50/EC50 [1]: 2.4875 µM
WntCondMedia_bCatenin C2C12 IC50/EC50 [2]: 0.3728 µM
WntCondMedia_Alk Phos C2C12 IC50/EC50 [3]: > 20 µM
Hela CellCycMod PI 2N IC50/EC50 [4]: 0.514 µM
Hela CellCycMod PI S Phase IC50/EC50 [4]: > 10 µM
Hela CellCycMod PI 4N IC50/EC50 [4]: > 10 µM
Hela CellCycMod PI MI IC50/EC50 [4]: 0.541 µM
Hela CellCycMod PI Cell Number IC50/EC50 [4]: 0.35 µM
Basal_Viability ATP DLD-1 IC50/EC50 ([5]; basal): 2.0651 µM
Basal_Viability ATP SW480 IC50/EC50 ([6]; basal): 1.249 µM
Basal_Viability ATP HCT116 IC50/EC50 [7]: 6.3 µM
GSK3b inh pretreated_Viability ATP HCT116 IC50/EC50 [8]: 1.098 µM
Basal_Viability ATP Colo 320 IC50/EC50 ([9]; basal): 0.5301 µM
Basal_Viability ATP HT-29 IC50/EC50 ([10]; basal): 8.5217 µM
Basal_Viability ATP RKO IC50/EC50 ([11]; basal): 4.299 µM
Basal_Viability ATP SNU-C1 IC50/EC50 ([12]; basal): 2.9752 µM
hp70S6K1 LANCE IC50/EC50 [13]: > 20 µM
hKDR LANCE IC50/EC50 [14]: > 20 µM
hJAK2 LANCE IC50/EC50 [15]: > 20 µM
hGSK3b LANCE IC50/EC50 [16]: > 20 µM
hFLT3 LANCE IC50/EC50 [17]: > 20 µM
VEGF_ADSC\ECFC Angio Hoechst NucArea IC50/EC50 [18]: 6.1739 µM

Cc1ccc2nc(N)[nH]c(=O)c2c1Sc1ccncc1.Cl.Cl [NCGC00263580-01]
VEGF_ADSC\ECFC Angio CD31 TubeArea IC50/EC50 [1]: 7.3662 µM
WntCondMedia_bCatenin C2C12 IC50/EC50 [2]: 0.7099 µM
WntCondMedia_Alk Phos C2C12 IC50/EC50 [3]: 0.2444 µM
Hela CellCycMod PI 2N IC50/EC50 [4]: > 10 µM
Hela CellCycMod PI S Phase IC50/EC50 [4]: > 10 µM
Hela CellCycMod PI 4N IC50/EC50 [4]: > 10 µM
Hela CellCycMod PI MI IC50/EC50 [4]: > 10 µM
Hela CellCycMod PI Cell Number IC50/EC50 [4]: > 10 µM
Basal_Viability ATP DLD-1 IC50/EC50 [5]: > 20 µM
Basal_Viability ATP SW480 IC50/EC50 [6]: 2.241 µM
Basal_Viability ATP HCT116 IC50/EC50 [7]: 3.495 µM
GSK3b inh pretreated_Viability ATP HCT116 IC50/EC50 [8]: 0.8299 µM
Basal_Viability ATP Colo 320 IC50/EC50 [9]: > 20 µM
Basal_Viability ATP HT-29 IC50/EC50 [10]: 4.747 µM
Basal_Viability ATP RKO IC50/EC50 [11]: 0.3429 µM
Basal_Viability ATP SNU-C1 IC50/EC50 [12]: > 20 µM
hp70S6K1 LANCE IC50/EC50 [13]: 17.8 µM
hKDR LANCE IC50/EC50 [14]: > 20 µM
hJAK2 LANCE IC50/EC50 [15]: > 20 µM
hGSK3b LANCE IC50/EC50 [16]: > 20 µM
hFLT3 LANCE IC50/EC50 [17]: > 20 µM
VEGF_ADSC\ECFC Angio Hoechst NucArea IC50/EC50 [18]: > 10 µM

CC[C@]1(O)C[C@@H]2CN(CCc3c([nH]c4ccccc34)[C@@](C(=O)OC)(c3cc4c(cc3OC)N(C)[C@H]3[C@@](O)(C(=O)OC)[C@H](OC(C)=O)[C@]5(CC)C=CCN6CC[C@]43[C@@H]65)C2)C1.O=S(=O)(O)O [NCGC00263548-01]
VEGF_ADSC\ECFC Angio CD31 TubeArea IC50/EC50 [1]: 0.0023 µM
WntCondMedia_bCatenin C2C12 IC50/EC50 [2]: 0.0058 µM
WntCondMedia_Alk Phos C2C12 IC50/EC50 [3]: 0.0089 µM
Hela CellCycMod PI 2N IC50/EC50 [4]: 0.0033 µM
Hela CellCycMod PI S Phase IC50/EC50 [4]: > 10 µM
Hela CellCycMod PI 4N IC50/EC50 [4]: 0.0032 µM
Hela CellCycMod PI MI IC50/EC50 [4]: 0.0032 µM
Hela CellCycMod PI Cell Number IC50/EC50 [4]: 0.0026 µM
Basal_Viability ATP HCT116 IC50/EC50 [7]: 0.001 µM
GSK3b inh pretreated_Viability ATP HCT116 IC50/EC50 [8]: 0.001 µM
Basal_Viability ATP Colo 320 IC50/EC50 [9]: 0.001 µM
Basal_Viability ATP HT-29 IC50/EC50 [10]: 0.001 µM
Basal_Viability ATP RKO IC50/EC50 [11]: 0.001 µM
Basal_Viability ATP SNU-C1 IC50/EC50 [12]: > 20 µM
hp70S6K1 LANCE IC50/EC50 [13]: > 20 µM
hKDR LANCE IC50/EC50 [14]: > 20 µM
hJAK2 LANCE IC50/EC50 [15]: > 20 µM
hGSK3b LANCE IC50/EC50 [16]: > 20 µM
hFLT3 LANCE IC50/EC50 [17]: > 20 µM
VEGF_ADSC\ECFC Angio Hoechst NucArea IC50/EC50 [18]: > 10 µM

— article PMC4503722, “Novel Phenotypic Outcomes Identified for a Public Collection of Approved Drugs from a Publicly Accessible Panel of Assays” (PLoS ONE, 2015)
